Data on 31 compounds can be found in ChEMBL document CHEMBL5244219, “Recent developments of quinolone-based derivatives and their activities against Escherichia coli” (Eur J Med Chem, 2018).

In brackets after ≈: the same amount, converted by molar mass.

Common to all, as to type: functional
The subject of assay [1] is Escherichia coli. The assay is described as follows: Antibacterial activity against Escherichia coli assessed as bacterial growth inhibition measured after 24 hrs by broth micro dilution method.
For assay [2], the system named is Escherichia coli. The assay is described as follows: Antibacterial activity against Escherichia coli assessed as bacterial growth inhibition incubated for 24 hrs by agar streak dilution method.
Assay [3] concerns Escherichia coli. The assay is described as follows: Antibacterial activity against Escherichia coli MTCC 739 assessed as bacterial growth inhibition incubated for 24 hrs by spectrophotometric method.
The test system of assay [4] is Escherichia coli. The assay is described as follows: Antibacterial activity against Escherichia coli assessed as zone of inhibition at 500 to 1000 ug per disc. To be noted: dose 500-1000 µg.
The subject of assay [5] is Escherichia coli. The assay is described as follows: Antibacterial activity against Escherichia coli NIHJ JC-2 assessed as bacterial growth inhibition measured after 24 hrs by agar dilution method. A general note: In agar dilution, organisms are placed on agar that contains the substance at set levels.
The test system of assay [6] is Escherichia coli. The assay is described as follows: Antibacterial activity against Escherichia coli 2010-29 assessed as bacterial growth inhibition measured after 24 hrs by agar dilution method.
The subject of assay [7] is Escherichia coli. The assay is described as follows: Antibacterial activity against Escherichia coli NIHJ assessed as bacterial growth inhibition measured after 24 hrs by agar dilution method.
The subject of assay [8] is Escherichia coli. The assay is described as follows: Antibacterial activity against Escherichia coli 2010-05 assessed as bacterial growth inhibition measured after 24 hrs by agar dilution method.
For assay [9], the system named is Escherichia coli. The assay is described as follows: Antibacterial activity against Escherichia coli ATCC 8739 assessed as bacterial growth inhibition incubated for 24 hrs by two-serial dilution method.
Assay [10] concerns Escherichia coli. The assay is described as follows: Antibacterial activity against Escherichia coli assessed as bacterial growth inhibition incubated for 16 to 24 hrs by absorbance analysis. The note with it: time 16-24 hrs.
Assay [11] has as its system Escherichia coli. The assay is described as follows: Antibacterial activity against Escherichia coli KC-14 infected in po dosed mouse assessed as bacterial growth inhibition. The note with it: Escherichia coli, KC-14, read-out: ED50.

The term MIC denotes the least concentration at which growth counts as inhibited. For `CCn1cc(C(=O)O)c(=O)c2cc(F)c(-n3cc(CO[C@H]4OC[C@@H](OC(C)=O)[C@@H](OC(C)=O)[C@@H]4OC(C)=O)nn3)c(F)c21`, in [1], the MIC is > 6.25 µg/mL. For the compound `CCn1cc(C(=O)O)c(=O)c2cc(F)c(N3CCN(C4SCC(=O)N4c4nc5ccc(OC)cc5s4)CC3)cc21` (centres undefined), in assay [2], the MIC was determined as 2 µg/mL (≈ 3.43 µM). Consider `Cn1c(=O)cc(OCc2nn(CN3CCN(c4cccc(C(F)(F)F)c4)CC3)c(=S)o2)c2ccccc21`, for which the MIC in assay [3] stood at 25 µg/mL (≈ 47 µM). `Cc1ccc2[nH]c(=O)c3cnn(Cc4ccccc4)c3c2c1`: the “diameter of the inhibition zone (DIZ)” value in assay [4] amounted to 7 mm. `CNC1CN(c2c(F)cc3c(=O)c(C(=O)O)cn(-c4cc(N)c(F)cc4CO)c3c2Cl)C1`: the MIC came to 0.008 µg/mL (≈ 0.0172 µM) in assay [5], 2 µg/mL (≈ 4.3 µM) in assay [6], 0.008 µg/mL (≈ 0.0172 µM) in [7] and 2 µg/mL (≈ 4.3 µM) in [8].

As to `CCn1c(=O)c(C(=O)/C=C/c2ccsc2)c(O)c2ccccc21`, the “diameter of the inhibition zone (DIZ)” value in [4] was 7 mm. With `CCn1cc(C(=O)O)c(=O)c2cc(F)c(N3CCN(C4SCC(=O)N4c4nc5ccc(C#N)cc5s4)CC3)cc21` (centres undefined), the MIC in [2] was determined as 2 µg/mL (≈ 3.46 µM). Take `CNC1CN(c2c(F)c(N)c3c(=O)c(C(=O)O)cn(-c4cc(N)c(F)cc4CO)c3c2Cl)C1`: the MIC stood at 0.008 µg/mL (≈ 0.0167 µM) in [5], 1 µg/mL (≈ 2.08 µM) in [6], 0.008 µg/mL (≈ 0.0167 µM) in assay [7] and 1 µg/mL (≈ 2.08 µM) in assay [8]. On to `O=C(O)c1cn(C2CC2)c2c(cc(F)c3nc[nH]c32)c1=O`, for which the MIC in assay [9] is > 3 µg/mL. `CC(=O)Nc1ccc2nc(N3C(=O)CSC3N3CCN(c4cc5c(cc4F)c(=O)c(C(=O)O)cn5C4CC4)CC3)sc2c1` (centres undefined): the MIC in assay [2] is 2 µg/mL (≈ 3.21 µM).

Regarding `COc1ccc(N2CCN(Cn3nc(COc4cc(=O)n(C)c5ccccc45)oc3=S)CC2)cc1`, the minimal inhibitory concentration (MIC) in assay [3] came to 25 µg/mL (≈ 50.6 µM). Consider `CCOc1ccc2nc(N3C(=O)CSC3N3CCN(c4cc5c(cc4F)c(=O)c(C(=O)O)cn5C4CC4)CC3)sc2c1` (centres undefined), for which the MIC in [2] was determined as 2 µg/mL (≈ 3.28 µM).

With `CCn1cc(C(=O)O)c(=O)c2cc(F)c(-n3cc(CO[C@H]4O[C@@H](C)[C@H](OC(C)=O)[C@@H](OC(C)=O)[C@H]4OC(C)=O)nn3)c(F)c21`, the minimum inhibitory concentration (MIC) in [1] was > 6.25 µg/mL. On to `CCn1cc(C(=O)O)c(=O)c2cc(F)c(-n3cc(CO[C@H]4O[C@H](COC(C)=O)[C@@H](OC(C)=O)[C@H](OC(C)=O)[C@@H]4OC(C)=O)nn3)c(F)c21`, for which the MIC in assay [1] was > 6.25 µg/mL. With `CNC1(C)CN(c2c(F)cc3c(=O)c(C(=O)O)cn(-c4cc(N)c(F)cc4CO)c3c2Cl)C1`, the MIC worked out at 0.008 µg/mL (≈ 0.0167 µM) in [5], 1 µg/mL (≈ 2.09 µM) in assay [6], 0.008 µg/mL (≈ 0.0167 µM) in [7] and 1 µg/mL (≈ 2.09 µM) in assay [8]. In the case of `Nc1cc(-n2cc(C(=O)O)c(=O)c3cc(F)c(N4CC(N)C4)c(Cl)c32)c(CO)cc1F`, the MIC came out at 0.008 µg/mL (≈ 0.0177 µM) in assay [5], 1 µg/mL (≈ 2.22 µM) in assay [6], 0.008 µg/mL (≈ 0.0177 µM) in [7] and 1 µg/mL (≈ 2.22 µM) in assay [8]. For the compound `Cc1ccc2[nH]c(C)c(CC(=O)O)c(=O)c2c1`, the minimum inhibitory concentration (MIC) in assay [10] was 8.97 µg/mL (≈ 38.8 µM).

For the compound `Cn1c(=O)cc(OCc2nn(CN3CCN(c4ccc(F)cc4)CC3)c(=S)s2)c2ccccc21`, the MIC in assay [3] was determined as 25 µg/mL (≈ 50.2 µM). With `O=c1[nH]c2ccc(F)cc2c2c1cnn2Cc1ccccc1`, the “diameter of the inhibition zone (DIZ)” value in assay [4] was found to be 7 mm.

Consider `Cn1c(=O)cc(OCc2nn(CN3CCN(c4cccc(C(F)(F)F)c4)CC3)c(=S)s2)c2ccccc21`, for which the MIC in assay [3] is 25 µg/mL (≈ 45.7 µM).

Regarding `O=C(O)c1cn(C2CC2)c2c(cc(F)c3nc(-c4ccncc4)[nH]c32)c1=O`, the MIC in assay [9] was > 3 µg/mL. With `Cc1[nH]c2ccc(Cl)cc2c(=O)c1CC(=O)O`, in [10], the MIC turned out to be 8.97 µg/mL (≈ 35.6 µM). As to `CCn1cc(C(=O)O)c(=O)c2cc(F)c(-n3cc(CO[C@H]4OC[C@@H](OC(C)=O)[C@H](OC(C)=O)[C@H]4OC(C)=O)nn3)c(F)c21`, the MIC in assay [1] is > 6.25 µg/mL. Consider `Nc1cc(-n2cc(C(=O)O)c(=O)c3cc(F)c(N4CC(O)C4)c(Cl)c32)c(CO)cc1F`, for which the minimal inhibitory concentration (MIC) in assay [5] stood at 0.008 µg/mL (≈ 0.0177 µM); in assay [6], 1 µg/mL (≈ 2.21 µM); in assay [7] it was 0.008 µg/mL (≈ 0.0177 µM); in assay [8] it was 1 µg/mL (≈ 2.21 µM). Broadly, the ED50 is the midpoint of the dose-response relation. Regarding `CCOC(=O)c1c2n(c3cc(N4CCNCC4)c(F)cc3c1=O)C(C)S2` (centres undefined), the 50% effective dose (ED50) in [11] stood at 0.78 mg/kg.

Turning to `Cn1c(=O)cc(OCc2nn(CN3CCN(c4ccc(C(F)(F)F)cc4)CC3)c(=S)o2)c2ccccc21`, the minimal inhibitory concentration (MIC) in [3] was 25 µg/mL (≈ 47 µM). As to `O=C(O)c1cn(C2CC2)c2c(cc(F)c3nc(-c4ccc(Cl)cc4)[nH]c32)c1=O`, the MIC in assay [9] was > 3 µg/mL. On to `CCNC1CN(c2c(F)cc3c(=O)c(C(=O)O)cn(-c4cc(N)c(F)cc4CO)c3c2Cl)C1`, for which the MIC in assay [5] is 0.008 µg/mL (≈ 0.0167 µM); in assay [6] it was 1 µg/mL (≈ 2.09 µM); in assay [7] it was 0.008 µg/mL (≈ 0.0167 µM); in assay [8] it was 1 µg/mL (≈ 2.09 µM). Regarding `COc1ccc(N2CCN(Cn3nc(COc4cc(=O)n(C)c5ccccc45)sc3=S)CC2)cc1`, the MIC in assay [3] stood at 25 µg/mL (≈ 49.1 µM). On to `O=C(O)c1cn(C2CC2)c2cc(N3CCN(C4SCC(=O)N4c4nc5ccc(F)cc5s4)CC3)c(F)cc2c1=O` (centres undefined), for which the MIC in assay [2] worked out at 2 µg/mL (≈ 3.43 µM). Regarding `O=C(O)c1cn(C2CC2)c2c(cc(F)c3nc(-c4ccoc4)[nH]c32)c1=O`, in [9], the MIC was > 3 µg/mL.
